Assay [1] concerns the target T1, NAMPT (Homo sapiens, UniProt P43490). Kind of assay: Time-Resolved Fluorescence Resonance Energy Transfer (TR-FRET) Binding Assay of NAMPT. The note with it: 6.8 nM NAMPT, 200 nM probe, equilibrated 3 hours, no substrates. The gist of the method: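 Compound was mixed with enzyme, probe and antibody and equilibrated 3 h at room temperature. TR-FRET read at Ex 337 nm, Em 520/495 nm. Ratios were normalized to controls and fitted to a four-parameter logistic equation for IC50.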

Assay [2] has as its target T1, NAMPT. Kind of assay: TR-FRET Binding Assay of NAMPT with PRPP. As to conditions: 2 nM NAMPT, 2 nM probe, 200 µM PRPP and 2.5 mM ATP, equilibrated 16 hours. The procedure, abridged: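 TR-FRET probe displacement with 2 nM NAMPT, 2 nM probe and 1 nM Tb-anti-His antibody in the presence of 200 µM PRPP and 2.5 mM ATP, 2% DMSO (all final). Equilibrated 16 hours before reading to permit possible enzymatic modification of compounds.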

The subject of a further assay is PC3 cells. Briefly: NAMPT Cell Proliferation Assay (Cell Titer Glo). The class given is cell-based. As to conditions: Homo sapiens, PC-3, 120 h, incubated 5 days, cell viability. The procedure, abridged:
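PC3 cells (500/well, RPMI with 10% heat-inactivated FBS) were exposed to 10-fold compound dilutions from […] for 5 days at 37 °C, 5% CO2. Viability was read with Cell Titer Glo; IC50 from sigmoidal fit of percent inhibition.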

pIC50: −log10 of the molar value.

T1 sequence (P43490 whole entry): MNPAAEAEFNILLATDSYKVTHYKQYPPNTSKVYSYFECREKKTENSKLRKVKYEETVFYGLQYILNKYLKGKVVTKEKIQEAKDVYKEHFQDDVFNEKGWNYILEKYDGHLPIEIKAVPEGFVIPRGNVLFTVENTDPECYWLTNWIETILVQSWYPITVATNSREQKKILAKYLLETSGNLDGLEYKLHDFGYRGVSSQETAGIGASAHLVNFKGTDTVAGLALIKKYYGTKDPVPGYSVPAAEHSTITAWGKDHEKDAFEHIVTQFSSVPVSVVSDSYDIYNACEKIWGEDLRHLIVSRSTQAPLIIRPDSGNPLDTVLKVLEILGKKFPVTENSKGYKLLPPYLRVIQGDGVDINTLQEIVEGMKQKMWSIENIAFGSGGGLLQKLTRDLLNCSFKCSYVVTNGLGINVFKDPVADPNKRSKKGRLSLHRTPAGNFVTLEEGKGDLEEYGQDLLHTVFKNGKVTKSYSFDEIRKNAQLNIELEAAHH

`CN(C)CCC(=O)N1CC(Oc2ccc(NC(=O)N3CC(c4cccnc4)C3)cc2)C1` [Example 150, N-(4-{[1-(N,N-dimethyl-beta-alanyl)azetidin-3-yl]oxy}phenyl)-3-(pyridin-3-yl)azetidine-1-carboxamide]: the pIC50 is 6.36 on NAMPT [1], 8.55 at NAMPT [2] and 5.98 in the assay with PC3 cells.

Take `CC1(C(=O)N2CC(Oc3ccc(NC(=O)N4CC(c5cccnc5)C4)cc3)C2)CCCCC1` [Example 152, N-[4-({1-[(1-methylcyclohexyl)carbonyl]azetidin-3-yl}oxy)phenyl]-3-(pyridin-3-yl)azetidine-1-carboxamide]: the pIC50 was 8.29 on NAMPT [1], 9.38 on NAMPT [2] and 8.22 in the assay with PC3 cells.

With `O=C(CC1CCCC1)N1CC(Oc2ccc(NC(=O)N3CC(c4cccnc4)C3)cc2)C1` [Example 153, N-(4-{[1-(cyclopentylacetyl)azetidin-3-yl]oxy}phenyl)-3-(pyridin-3-yl)azetidine-1-carboxamide], the pIC50 at NAMPT [1] is 7.91; on NAMPT [2], 9.36; with PC3 cells, 8.10.

`O=C(CN1CCCC1)N1CC(Oc2ccc(NC(=O)N3CC(c4cccnc4)C3)cc2)C1` [Example 155, 3-(pyridin-3-yl)-N-(4-{[1-(pyrrolidin-1-ylacetyl)azetidin-3-yl]oxy}phenyl)azetidine-1-carboxamide]: the values for the pIC50 at NAMPT [1], at NAMPT [2] and in the assay with PC3 cells were 6.40, 9.37 and 6.89, respectively.

On to `CC(C)(O)C(=O)N1CCC(c2ccc(NC(=O)N3CC(c4cccnc4F)C3)cc2)CC1` [Example 156, 3-(2-fluoropyridin-3-yl)-N-{4-[1-(2-hydroxy-2-methylpropanoyl)piperidin-4-yl]phenyl}azetidine-1-carboxamide], for which the pIC50 was 8.57 on NAMPT [1], 9.63 at NAMPT [2] and 7.13 with PC3 cells.

Turning to `CC(C)(O)C(=O)N1CCC(c2ccc(NC(=O)N3CC(c4cccnc4Cl)C3)cc2)CC1` [Example 161, 3-(2-chloropyridin-3-yl)-N-{4-[1-(2-hydroxy-2-methylpropanoyl)piperidin-4-yl]phenyl}azetidine-1-carboxamide], the results for the pIC50 at NAMPT [1], at NAMPT [2] and with PC3 cells were 8.06, 8.24 and 6.04, respectively.

With `O=C(CC1CCOCC1)N1CCC(Oc2ccc(NC(=O)N3CCN(c4cccnc4)CC3)cc2)CC1` [Example 162, 4-(pyridin-3-yl)-N-(4-{[1-(tetrahydro-2H-pyran-4-ylacetyl)piperidin-4-yl]oxy}phenyl)piperazine-1-carboxamide], the results for the pIC50 on NAMPT [1], at NAMPT [2] and with PC3 cells were 6.45, 9.24 and 6.57, respectively.

In the case of `CCCCC(=O)N1CCC(c2ccc(NC(=O)N3CC(c4cccnc4)C3)cc2)CC1` [Example 163, N-[4-(1-pentanoylpiperidin-4-yl)phenyl]-3-(pyridin-3-yl)azetidine-1-carboxamide], the pIC50 at NAMPT [1] was 8.14; on NAMPT [2], 9.53; with PC3 cells it was 7.46.

As to `CC1CC1C(=O)N1CCC(c2ccc(NC(=O)N3CC(c4cccnc4)C3)cc2)CC1` (stereo not drawn) [Example 164, N-(4-{1-[(2-methylcyclopropyl)carbonyl]piperidin-4-yl}phenyl)-3-(pyridin-3-yl)azetidine-1-carboxamide], the pIC50 at NAMPT [1] is 7.80; at NAMPT [2], 9.50; with PC3 cells, 7.59.

Take `O=C(CC1C[C@@H]2CC[C@H]1C2)N1CCC(c2ccc(NC(=O)N3CC(c4cccnc4)C3)cc2)CC1` (stereo partly drawn) [Example 165, N-(4-{1-[(1S,4R)-bicyclo[2.2.1]hept-2-ylacetyl]piperidin-4-yl}phenyl)-3-(pyridin-3-yl)azetidine-1-carboxamide]: the pIC50 is 7.84 on NAMPT [1], 9.41 on NAMPT [2] and 7.21 in the assay with PC3 cells.

As to `CC(C)CCC(=O)N1CCC(c2ccc(NC(=O)N3CC(c4cccnc4)C3)cc2)CC1` [Example 166, N-{4-[1-(4-methylpentanoyl)piperidin-4-yl]phenyl}-3-(pyridin-3-yl)azetidine-1-carboxamide], the pIC50 at NAMPT [1] was 7.76; on NAMPT [2], 9.47; in the assay with PC3 cells it was 7.18.

Take `CCC(C)CC(=O)N1CCC(c2ccc(NC(=O)N3CC(c4cccnc4)C3)cc2)CC1` (stereo not drawn) [Example 167, N-{4-[1-(3-methylpentanoyl)piperidin-4-yl]phenyl}-3-(pyridin-3-yl)azetidine-1-carboxamide]: the negative-log IC50 (pIC50) at NAMPT [1] was 8.08; at NAMPT [2], 9.50; in the assay with PC3 cells it was 7.63.

In the case of `CCOCCC(=O)N1CCC(c2ccc(NC(=O)N3CC(c4cccnc4)C3)cc2)CC1` [Example 168, N-{4-[1-(3-ethoxypropanoyl)piperidin-4-yl]phenyl}-3-(pyridin-3-yl)azetidine-1-carboxamide], the results for the pIC50 on NAMPT [1], at NAMPT [2] and with PC3 cells were 7.54, 9.30 and 7.35, respectively.

Consider `CCC(C)(C)C(=O)N1CCC(c2ccc(NC(=O)N3CC(c4cccnc4)C3)cc2)CC1` [Example 169, N-{4-[1-(2,2-dimethylbutanoyl)piperidin-4-yl]phenyl}-3-(pyridin-3-yl)azetidine-1-carboxamide], for which the pIC50 at NAMPT [1] is 8.27; on NAMPT [2], 9.52; with PC3 cells, 8.10.

On to `CC(C)(C)CC(=O)N1CCC(c2ccc(NC(=O)N3CC(c4cccnc4)C3)cc2)CC1` [Example 170, N-{4-[1-(3,3-dimethylbutanoyl)piperidin-4-yl]phenyl}-3-(pyridin-3-yl)azetidine-1-carboxamide], for which the results for the pIC50 on NAMPT [1], at NAMPT [2] and in the assay with PC3 cells were 8.15, 9.44 and 7.83, respectively.

`CC(C)(C)C(=O)N1CCC(c2ccc(NC(=O)N3CC(c4cccnc4)C3)cc2)CC1` [Example 171, N-{4-[1-(2,2-dimethylpropanoyl)piperidin-4-yl]phenyl}-3-(pyridin-3-yl)azetidine-1-carboxamide]: the pIC50 was 8.06 on NAMPT [1], 9.64 on NAMPT [2] and 7.66 in the assay with PC3 cells.

For the compound `CCCC(=O)N1CCC(c2ccc(NC(=O)N3CC(c4cccnc4)C3)cc2)CC1` [Example 172, N-[4-(1-butanoylpiperidin-4-yl)phenyl]-3-(pyridin-3-yl)azetidine-1-carboxamide], the pIC50 was 8.25 on NAMPT [1], 9.69 at NAMPT [2] and 7.46 in the assay with PC3 cells.

Regarding `CCOCC(=O)N1CCC(c2ccc(NC(=O)N3CC(c4cccnc4)C3)cc2)CC1` [Example 173, N-{4-[1-(ethoxyacetyl)piperidin-4-yl]phenyl}-3-(pyridin-3-yl)azetidine-1-carboxamide], the pIC50 was 7.04 on NAMPT [1], 9.41 on NAMPT [2] and 7.25 with PC3 cells.

As for `CC(C)CC(=O)N1CCC(c2ccc(NC(=O)N3CC(c4cccnc4)C3)cc2)CC1` [Example 174, N-{4-[1-(3-methylbutanoyl)piperidin-4-yl]phenyl}-3-(pyridin-3-yl)azetidine-1-carboxamide], the pIC50 was 7.68 on NAMPT [1], 9.49 on NAMPT [2] and 7.61 in the assay on PC3 cells.

Consider `CC(=O)N[C@@H](CC(C)C)C(=O)N1CCC(c2ccc(NC(=O)N3CC(c4cccnc4)C3)cc2)CC1` [Example 175, N-{4-[1-(N-acetyl-L-leucyl)piperidin-4-yl]phenyl}-3-(pyridin-3-yl)azetidine-1-carboxamide], for which the pIC50 at NAMPT [1] was 7.51; on NAMPT [2] it was 9.39; with PC3 cells it was 7.17.

On to `COCCOCC(=O)N1CCC(c2ccc(NC(=O)N3CC(c4cccnc4)C3)cc2)CC1` [Example 176, N-(4-{1-[(2-methoxyethoxy)acetyl]piperidin-4-yl}phenyl)-3-(pyridin-3-yl)azetidine-1-carboxamide], for which the pIC50 was 7.18 at NAMPT [1], 9.46 at NAMPT [2] and 7.05 in the assay on PC3 cells.

Take `O=C(Nc1ccc(C2CCN(C(=O)C3CCCCC3)CC2)cc1)N1CC(c2cccnc2)C1` [Example 177, N-{4-[1-(cyclohexylcarbonyl)piperidin-4-yl]phenyl}-3-(pyridin-3-yl)azetidine-1-carboxamide]: the negative-log IC50 (pIC50) on NAMPT [1] was 7.80; at NAMPT [2] it was 9.52; in the assay on PC3 cells it was 7.13.

With `O=C(CC1CCCCC1)N1CCC(c2ccc(NC(=O)N3CC(c4cccnc4)C3)cc2)CC1` [Example 178, N-{4-[1-(cyclohexylacetyl)piperidin-4-yl]phenyl}-3-(pyridin-3-yl)azetidine-1-carboxamide], the negative logarithm of the IC50 (pIC50) was 7.86 at NAMPT [1], 9.38 on NAMPT [2] and 7.12 in the assay on PC3 cells.

Turning to `O=C(CCC(F)(F)F)N1CCC(c2ccc(NC(=O)N3CC(c4cccnc4)C3)cc2)CC1` [Example 179, 3-(pyridin-3-yl)-N-{4-[1-(4,4,4-trifluorobutanoyl)piperidin-4-yl]phenyl}azetidine-1-carboxamide], the pIC50 on NAMPT [1] is 7.49; on NAMPT [2] it was 9.60; with PC3 cells, 7.11.

For `O=C(Nc1ccc(C2CCN(C(=O)C3CCCC3)CC2)cc1)N1CC(c2cccnc2)C1` [Example 180, N-{4-[1-(cyclopentylcarbonyl)piperidin-4-yl]phenyl}-3-(pyridin-3-yl)azetidine-1-carboxamide], the pIC50 on NAMPT [1] is 7.67; at NAMPT [2] it was 9.55; with PC3 cells it was 7.17.

As to `CC1(C(=O)N2CCC(c3ccc(NC(=O)N4CC(c5cccnc5)C4)cc3)CC2)CCCCC1` [Example 181, N-(4-{1-[(1-methylcyclohexyl)carbonyl]piperidin-4-yl}phenyl)-3-(pyridin-3-yl)azetidine-1-carboxamide], the results for the pIC50 at NAMPT [1], at NAMPT [2] and with PC3 cells were 8.09, 9.59 and 7.61, respectively.

The record behind these values is US9296723B2, “NAMPT inhibitors” (AbbVie Inc., priority 2012, dated 2016).
